In patent US11767310B2, “Nicotinamide RIPK1 inhibitors” (AbbVie Inc., priority 2021, dated 2023):
Like-named read-outs stand apart in the source and are kept apart here.

What was measured:
Experiment in all cases: Kinase binding screen
[1] = system: FLT3(ITD); parameters: species or system human
[2] = biological target: ROCK1 (Homo sapiens (Human), UniProt Q13464); settings: read-out: Percent Control at 100 nM Compound Concentration
[3] = biological target: FLT1 (Homo sapiens (Human), UniProt P17948); settings: read-out: Percent Control at 100 nM Compound Concentration
[4] = biological target: ABL1(T315I)-phosphorylated (Homo sapiens (Human), UniProt P00519, T315I); settings: read-out: Percent Control at 100 nM Compound Concentration
[5] = biological target: CDK4-cyclinD3 (Homo sapiens (Human), UniProt P11802); settings: read-out: Percent Control at 100 nM Compound Concentration
[6] = biological target: PHKG2 (Homo sapiens (Human), UniProt P15735); settings: read-out: Percent Control at 100 nM Compound Concentration
[7] = biological target: PIK3C2B (Homo sapiens (Human), UniProt O00750); settings: read-out: Percent Control at 100 nM Compound Concentration
[8] = biological target: PIK3C2G (Homo sapiens (Human), UniProt O75747); settings: read-out: Percent Control at 100 nM Compound Concentration
[9] = biological target: CSF1R (Homo sapiens (Human), UniProt P07333); settings: read-out: Percent Control at 100 nM Compound Concentration
[10] = biological target: MUSK (Homo sapiens (Human), UniProt O15146); settings: read-out: Percent Control at 100 nM Compound Concentration
[11] = biological target: AURKB (Homo sapiens (Human), UniProt Q96GD4); settings: read-out: Percent Control at 100 nM Compound Concentration
[12] = biological target: TRKB (Homo sapiens (Human), UniProt Q16620); settings: read-out: Percent Control at 100 nM Compound Concentration
[13] = biological target: EGFR(G719C) (Homo sapiens (Human), UniProt P00533, G719C); settings: read-out: Percent Control at 100 nM Compound Concentration
[14] = biological target: CAMK1 (Homo sapiens (Human), UniProt Q14012); settings: read-out: Percent Control at 100 nM Compound Concentration
[15] = biological target: PIM1 (Homo sapiens (Human), UniProt P11309); settings: read-out: Percent Control at 100 nM Compound Concentration
[16] = biological target: MST2 (Homo sapiens (Human), UniProt Q13188); settings: read-out: Percent Control at 100 nM Compound Concentration
[17] = biological target: BUB1 (Homo sapiens (Human), UniProt O43683); settings: read-out: Percent Control at 100 nM Compound Concentration
[18] = biological target: MEK4 (Homo sapiens (Human), UniProt P45985); settings: read-out: Percent Control at 100 nM Compound Concentration
[19] = biological target: LCK (Homo sapiens (Human), UniProt P06239); settings: read-out: Percent Control at 100 nM Compound Concentration
[20] = biological target: PRKCD (Homo sapiens (Human), UniProt Q05655); settings: read-out: Percent Control at 100 nM Compound Concentration
[21] = biological target: RET(V804L) (Homo sapiens (Human), UniProt P07949, V804L); settings: read-out: Percent Control at 100 nM Compound Concentration
[22] = biological target: MEK2 (Homo sapiens (Human), UniProt P36507); settings: read-out: Percent Control at 100 nM Compound Concentration
[23] = biological target: NEK5 (Homo sapiens (Human), UniProt Q6P3R8); settings: read-out: Percent Control at 100 nM Compound Concentration
[24] = biological target: PRKD2 (Homo sapiens (Human), UniProt Q9BZL6); settings: read-out: Percent Control at 100 nM Compound Concentration
[25] = biological target: TYK2(JH1domain-catalytic) (Homo sapiens (Human), UniProt P29597); settings: read-out: Percent Control at 100 nM Compound Concentration
[26] = biological target: RIPK2 (Homo sapiens (Human), UniProt O43353); settings: read-out: Percent Control at 100 nM Compound Concentration
Chain of RIPK2 (O43353 whole entry): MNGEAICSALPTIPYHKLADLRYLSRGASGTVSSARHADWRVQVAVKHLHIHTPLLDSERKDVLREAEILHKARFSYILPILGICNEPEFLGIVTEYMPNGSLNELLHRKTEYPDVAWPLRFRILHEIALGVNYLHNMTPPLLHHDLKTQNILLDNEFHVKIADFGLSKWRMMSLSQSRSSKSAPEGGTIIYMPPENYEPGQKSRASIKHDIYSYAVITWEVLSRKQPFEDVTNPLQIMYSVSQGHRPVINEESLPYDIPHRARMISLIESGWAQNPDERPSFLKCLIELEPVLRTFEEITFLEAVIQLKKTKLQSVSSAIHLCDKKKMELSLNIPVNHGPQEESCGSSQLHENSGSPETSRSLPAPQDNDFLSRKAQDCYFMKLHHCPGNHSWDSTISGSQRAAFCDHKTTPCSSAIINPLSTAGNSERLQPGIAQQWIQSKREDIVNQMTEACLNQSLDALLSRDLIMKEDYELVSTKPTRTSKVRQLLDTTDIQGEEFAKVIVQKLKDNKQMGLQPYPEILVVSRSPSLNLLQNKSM

Chain of PIK3C2G (O75747 whole entry): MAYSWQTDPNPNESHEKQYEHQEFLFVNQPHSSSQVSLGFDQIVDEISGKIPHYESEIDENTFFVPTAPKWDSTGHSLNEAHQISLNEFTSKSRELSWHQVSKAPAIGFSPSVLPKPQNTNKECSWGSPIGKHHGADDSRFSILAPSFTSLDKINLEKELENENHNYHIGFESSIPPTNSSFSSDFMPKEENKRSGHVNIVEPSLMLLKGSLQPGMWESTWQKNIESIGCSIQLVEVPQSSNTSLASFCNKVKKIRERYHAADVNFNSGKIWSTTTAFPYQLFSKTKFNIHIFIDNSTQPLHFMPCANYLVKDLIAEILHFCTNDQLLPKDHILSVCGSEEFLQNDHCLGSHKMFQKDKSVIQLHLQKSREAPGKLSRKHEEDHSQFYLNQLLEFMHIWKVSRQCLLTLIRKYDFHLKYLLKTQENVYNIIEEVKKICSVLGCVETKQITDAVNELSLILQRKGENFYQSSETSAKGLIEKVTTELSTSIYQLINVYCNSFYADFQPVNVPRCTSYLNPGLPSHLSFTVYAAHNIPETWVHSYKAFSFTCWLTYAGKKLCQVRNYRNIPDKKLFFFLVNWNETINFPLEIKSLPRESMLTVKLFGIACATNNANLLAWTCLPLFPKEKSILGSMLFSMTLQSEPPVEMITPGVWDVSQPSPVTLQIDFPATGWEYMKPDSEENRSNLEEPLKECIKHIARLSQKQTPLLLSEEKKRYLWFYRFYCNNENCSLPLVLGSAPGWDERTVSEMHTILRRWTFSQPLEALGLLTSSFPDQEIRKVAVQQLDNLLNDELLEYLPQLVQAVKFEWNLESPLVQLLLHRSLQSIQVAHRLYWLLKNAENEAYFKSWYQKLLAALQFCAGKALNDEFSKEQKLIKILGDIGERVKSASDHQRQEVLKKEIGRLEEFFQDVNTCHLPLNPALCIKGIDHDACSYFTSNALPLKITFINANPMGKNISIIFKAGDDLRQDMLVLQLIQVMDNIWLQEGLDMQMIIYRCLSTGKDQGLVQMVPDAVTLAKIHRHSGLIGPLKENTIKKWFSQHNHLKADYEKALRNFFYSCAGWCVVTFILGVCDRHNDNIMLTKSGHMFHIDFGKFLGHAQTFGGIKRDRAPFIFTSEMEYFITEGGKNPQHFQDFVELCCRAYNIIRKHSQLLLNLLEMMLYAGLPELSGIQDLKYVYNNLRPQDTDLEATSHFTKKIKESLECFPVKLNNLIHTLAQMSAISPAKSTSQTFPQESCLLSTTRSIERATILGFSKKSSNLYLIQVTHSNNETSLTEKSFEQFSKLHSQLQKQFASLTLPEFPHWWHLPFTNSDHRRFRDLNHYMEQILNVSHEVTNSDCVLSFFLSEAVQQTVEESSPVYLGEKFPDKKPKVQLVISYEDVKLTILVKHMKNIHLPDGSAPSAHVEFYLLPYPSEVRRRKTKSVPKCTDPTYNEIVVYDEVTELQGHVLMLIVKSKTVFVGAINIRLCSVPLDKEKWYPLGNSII
Chain of MEK4 (P45985 whole entry): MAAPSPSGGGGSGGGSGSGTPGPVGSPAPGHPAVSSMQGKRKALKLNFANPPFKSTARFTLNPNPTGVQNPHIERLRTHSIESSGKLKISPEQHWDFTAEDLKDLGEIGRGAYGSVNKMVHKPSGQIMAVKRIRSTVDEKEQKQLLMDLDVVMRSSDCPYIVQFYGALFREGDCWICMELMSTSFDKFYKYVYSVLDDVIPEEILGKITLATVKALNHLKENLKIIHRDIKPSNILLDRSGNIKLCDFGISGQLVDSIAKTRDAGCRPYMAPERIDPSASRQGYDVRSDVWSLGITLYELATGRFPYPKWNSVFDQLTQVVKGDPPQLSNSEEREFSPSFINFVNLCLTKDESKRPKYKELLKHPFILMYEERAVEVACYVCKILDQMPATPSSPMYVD
Chain of EGFR(G719C) (P00533 25-1210 G719C): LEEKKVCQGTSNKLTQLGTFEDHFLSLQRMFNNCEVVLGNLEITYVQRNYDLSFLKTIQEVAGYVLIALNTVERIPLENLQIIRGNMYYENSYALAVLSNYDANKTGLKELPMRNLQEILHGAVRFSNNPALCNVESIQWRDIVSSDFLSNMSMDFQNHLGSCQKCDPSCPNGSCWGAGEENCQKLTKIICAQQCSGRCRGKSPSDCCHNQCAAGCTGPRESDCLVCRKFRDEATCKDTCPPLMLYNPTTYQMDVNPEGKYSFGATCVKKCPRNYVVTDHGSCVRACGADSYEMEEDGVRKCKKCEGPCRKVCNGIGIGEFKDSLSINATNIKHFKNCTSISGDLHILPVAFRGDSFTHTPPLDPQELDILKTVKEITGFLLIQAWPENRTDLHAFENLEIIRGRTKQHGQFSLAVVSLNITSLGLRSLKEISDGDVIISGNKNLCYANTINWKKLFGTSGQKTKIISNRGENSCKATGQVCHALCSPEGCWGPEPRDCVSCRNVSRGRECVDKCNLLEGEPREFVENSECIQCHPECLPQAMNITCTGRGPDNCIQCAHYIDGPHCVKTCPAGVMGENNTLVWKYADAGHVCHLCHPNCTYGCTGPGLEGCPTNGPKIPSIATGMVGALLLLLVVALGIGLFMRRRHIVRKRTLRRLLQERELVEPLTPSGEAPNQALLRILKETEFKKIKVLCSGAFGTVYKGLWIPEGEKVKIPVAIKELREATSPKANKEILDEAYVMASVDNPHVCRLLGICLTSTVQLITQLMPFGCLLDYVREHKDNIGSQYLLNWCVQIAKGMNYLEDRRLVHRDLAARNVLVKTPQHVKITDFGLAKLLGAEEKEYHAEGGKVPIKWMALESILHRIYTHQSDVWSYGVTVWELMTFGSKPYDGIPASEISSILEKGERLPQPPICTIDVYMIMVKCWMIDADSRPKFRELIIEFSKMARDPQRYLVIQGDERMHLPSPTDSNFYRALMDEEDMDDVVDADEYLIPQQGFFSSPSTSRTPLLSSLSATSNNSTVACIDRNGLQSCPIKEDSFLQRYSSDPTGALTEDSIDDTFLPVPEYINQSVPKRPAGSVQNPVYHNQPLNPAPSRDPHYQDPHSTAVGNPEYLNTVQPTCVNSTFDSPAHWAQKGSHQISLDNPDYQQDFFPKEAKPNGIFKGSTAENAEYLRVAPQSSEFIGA
Chain of FLT1 (P17948 27-1338): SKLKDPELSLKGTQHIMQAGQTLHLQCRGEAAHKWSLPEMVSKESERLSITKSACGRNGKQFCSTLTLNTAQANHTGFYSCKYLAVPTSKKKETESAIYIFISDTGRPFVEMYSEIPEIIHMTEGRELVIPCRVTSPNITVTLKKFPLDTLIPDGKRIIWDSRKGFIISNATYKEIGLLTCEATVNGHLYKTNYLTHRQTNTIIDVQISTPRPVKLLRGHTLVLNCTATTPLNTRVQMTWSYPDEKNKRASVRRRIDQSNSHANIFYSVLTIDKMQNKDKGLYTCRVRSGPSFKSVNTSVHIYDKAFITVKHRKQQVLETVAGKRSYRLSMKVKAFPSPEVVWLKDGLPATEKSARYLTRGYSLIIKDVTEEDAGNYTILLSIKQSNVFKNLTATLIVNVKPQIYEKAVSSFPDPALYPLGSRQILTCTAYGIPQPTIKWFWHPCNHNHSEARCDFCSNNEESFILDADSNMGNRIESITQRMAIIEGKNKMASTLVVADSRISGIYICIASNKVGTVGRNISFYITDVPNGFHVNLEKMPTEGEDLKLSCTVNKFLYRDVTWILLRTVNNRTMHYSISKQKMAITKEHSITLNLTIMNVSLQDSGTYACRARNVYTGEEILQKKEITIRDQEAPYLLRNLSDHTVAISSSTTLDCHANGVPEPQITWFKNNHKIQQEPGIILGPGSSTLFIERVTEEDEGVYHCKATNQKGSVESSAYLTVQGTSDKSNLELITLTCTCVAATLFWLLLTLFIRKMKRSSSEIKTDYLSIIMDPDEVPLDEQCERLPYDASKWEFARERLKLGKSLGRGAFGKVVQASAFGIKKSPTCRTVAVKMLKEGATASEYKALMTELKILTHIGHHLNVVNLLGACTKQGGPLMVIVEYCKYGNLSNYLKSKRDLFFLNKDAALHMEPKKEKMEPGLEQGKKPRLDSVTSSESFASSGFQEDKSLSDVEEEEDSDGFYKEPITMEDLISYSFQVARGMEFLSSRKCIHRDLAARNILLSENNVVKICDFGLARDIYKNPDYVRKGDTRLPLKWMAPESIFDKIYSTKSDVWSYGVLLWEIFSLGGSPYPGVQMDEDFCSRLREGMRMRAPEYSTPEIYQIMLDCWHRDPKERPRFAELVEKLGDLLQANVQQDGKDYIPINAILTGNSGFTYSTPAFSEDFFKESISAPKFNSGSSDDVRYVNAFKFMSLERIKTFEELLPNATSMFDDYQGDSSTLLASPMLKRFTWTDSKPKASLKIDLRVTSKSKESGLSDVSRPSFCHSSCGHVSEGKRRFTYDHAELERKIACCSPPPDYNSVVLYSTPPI

CN(C[C@@H](O)Cc1ccccc1)C(=O)c1cncc(C#Cc2cnn(C(F)F)c2)c1 [Example 2, (S)-5-((1-(difluoromethyl)-1H-pyrazol-4-yl)ethynyl)-N-(2-hydroxy-3-phenylpropyl)-N-methylnicotinamide]
Percent Control at 100 nM Compound Concentration [1]: 100% | remaining activity at 0.1 µM ([2]; ROCK1): 100% | remaining activity at 0.1 µM ([3]; FLT1): 100% | remaining activity at 0.1 µM ([4]; ABL1(T315I)-phosphorylated): 80% | remaining activity at 0.1 µM ([5]; CDK4-cyclinD3): 100% | remaining activity at 0.1 µM ([6]; PHKG2): 100% | remaining activity at 0.1 µM ([7]; PIK3C2B): 100% | remaining activity at 0.1 µM ([8]; PIK3C2G): 85% | remaining activity at 0.1 µM ([9]; CSF1R): 100% | remaining activity at 0.1 µM ([10]; MUSK): 100% | remaining activity at 0.1 µM ([11]; AURKB): 100% | remaining activity at 0.1 µM ([12]; TRKB): 100% | remaining activity at 0.1 µM ([13]; EGFR(G719C)): 100% | remaining activity at 0.1 µM ([14]; CAMK1): 100% | remaining activity at 0.1 µM ([15]; PIM1): 98% | remaining activity at 0.1 µM ([16]; MST2): 100% | remaining activity at 0.1 µM ([17]; BUB1): 93% | remaining activity at 0.1 µM ([18]; MEK4): 100% | remaining activity at 0.1 µM ([19]; LCK): 100% | remaining activity at 0.1 µM ([20]; PRKCD): 98% | remaining activity at 0.1 µM ([21]; RET(V804L)): 100% | remaining activity at 0.1 µM ([22]; MEK2): 99% | remaining activity at 0.1 µM ([23]; NEK5): 100% | remaining activity at 0.1 µM ([24]; PRKD2): 79% | remaining activity at 0.1 µM ([25]; TYK2(JH1domain-catalytic)): 100% | remaining activity at 0.1 µM ([26]; RIPK2): 100%

CN(C[C@H](Cc1ccccc1)OP(=O)(O)O)C(=O)c1cncc(C#Cc2cnn(C(F)F)c2)c1 [Example 19, (S)-1-(5-((1-(difluoromethyl)-1H-pyrazol-4-yl)ethynyl)-N-methylnicotinamido)-3-phenylpropan-2-yl dihydrogen phosphate]
Percent Control at 100 nM Compound Concentration [1]: 100% | remaining activity at 0.1 µM [2]: 100% | remaining activity at 0.1 µM [3]: 100% | remaining activity at 0.1 µM [4]: 92% | remaining activity at 0.1 µM [5]: 100% | remaining activity at 0.1 µM [6]: 100% | remaining activity at 0.1 µM [7]: 100% | remaining activity at 0.1 µM [8]: 78% | remaining activity at 0.1 µM [9]: 100% | remaining activity at 0.1 µM [10]: 100% | remaining activity at 0.1 µM [11]: 90% | remaining activity at 0.1 µM [12]: 94% | remaining activity at 0.1 µM [13]: 77% | remaining activity at 0.1 µM [14]: 62% | remaining activity at 0.1 µM [15]: 100% | remaining activity at 0.1 µM [16]: 99% | remaining activity at 0.1 µM [17]: 85% | remaining activity at 0.1 µM [18]: 100% | remaining activity at 0.1 µM [19]: 95% | remaining activity at 0.1 µM [20]: 94% | remaining activity at 0.1 µM [21]: 100% | remaining activity at 0.1 µM [22]: 98% | remaining activity at 0.1 µM [23]: 94% | remaining activity at 0.1 µM [24]: 100% | remaining activity at 0.1 µM [25]: 100% | remaining activity at 0.1 µM [26]: 100%
